The source made the active and inactive calls. No cut-off for these calls is given here.
Tested on: PC-12
Test: Neuroprotective activity against okadaic acid-induced cell injury in rat PC12 cells assessed as cell viability at 10 uM after 48 hrs by MTT assay (reference value: 60.4 +/- 23%)
Type: functional
Conditions: for viability at 10 µM: PC-12, 48 h, read-out: Activity

Structure (SMILES)	viability at 10 µM [%]	Activity
CC(=O)OC[C@@]12[C@@H](OC(=O)/C=C\c3ccccc3)CC[C@@H](C)[C@]13OC(C)(C)[C@H]([C@@H](OC(C)=O)[C@H]2OC(=O)c1cccnc1)[C@H]3OC(C)=O	75.7	
CC(=O)O[C@@H]1[C@H]2[C@@H](O)[C@@H](OC(=O)c3ccoc3)[C@]3(CO)[C@@H](OC(=O)/C=C/c4ccccc4)CC[C@](C)(O)[C@@]13OC2(C)C		inactive
CC(=O)OC[C@@]12[C@@H](OC(=O)/C=C/c3ccccc3)CC[C@](C)(O)[C@]13OC(C)(C)[C@H](C(=O)[C@H]2OC(=O)c1ccoc1)[C@H]3O		inactive
CC(=O)OC[C@@]12[C@@H](OC(=O)c3ccoc3)CC[C@@H](C)[C@]13OC(C)(C)[C@H]([C@@H](OC(C)=O)[C@H]2OC(=O)c1cccnc1)[C@H]3OC(C)=O	72.4	
CC(=O)OC[C@@]12[C@@H](OC(=O)/C=C\c3ccccc3)CC[C@](C)(O)[C@]13OC(C)(C)[C@H](C(=O)[C@H]2OC(=O)c1ccoc1)[C@H]3O		inactive
CC(=O)OC[C@@]12[C@@H](OC(=O)c3ccoc3)CC[C@@H](C)[C@]13OC(C)(C)[C@H]([C@@H](OC(C)=O)[C@H]2OC(=O)c1cccnc1)[C@H]3OC(=O)c1ccoc1		inactive
CC(=O)OC[C@@]12[C@@H](OC(=O)/C=C/c3ccccc3)CC[C@@H](C)[C@]13OC(C)(C)[C@H]([C@@H](OC(C)=O)[C@H]2OC(=O)c1cccnc1)[C@H]3OC(C)=O	81.2	
CC(=O)OC[C@@]12[C@@H](OC(=O)/C=C\c3ccccc3)CC[C@](C)(O)[C@]13OC(C)(C)[C@H]([C@@H](OC(C)=O)[C@H]2OC(=O)c1ccoc1)[C@H]3O		inactive
CC(=O)OC[C@@]12[C@@H](OC(=O)/C=C/c3ccccc3)CC[C@](C)(O)[C@]13OC(C)(C)[C@H]([C@@H](O)[C@H]2O)[C@H]3OC(C)=O		inactive
CC(=O)OC[C@]12[C@H](OC(C)=O)[C@H](OC(C)=O)[C@@H]3[C@@H](OC(=O)c4ccccc4)[C@@]14OC3(C)COC(=O)c1cccnc1C(C)C(C)C(=O)O[C@@H]([C@H](O)[C@@H]2OC(=O)c1ccccc1)[C@]4(C)O (stereo partly drawn)	86.2	
CC(=O)OC[C@@]12[C@@H](OC(=O)/C=C/c3ccccc3)CC[C@](C)(O)[C@]13OC(C)(C)[C@H]([C@@H](O)[C@H]2OC(=O)c1ccoc1)[C@H]3OC(C)=O		inactive
CC(=O)OC[C@@]12[C@@H](OC(C)=O)CC[C@@H](C)[C@]13OC(C)(C)[C@H]([C@@H](OC(C)=O)[C@H]2OC(=O)c1cccnc1)[C@H]3OC(=O)c1ccoc1	71.5	
CC(=O)OC[C@@]12[C@@H](OC(=O)/C=C/c3ccccc3)CC[C@](C)(O)[C@]13OC(C)(C)[C@H]([C@@H](OC(C)=O)[C@H]2OC(=O)c1ccoc1)[C@H]3O		inactive

From ChEMBL document CHEMBL4138272, “Neuroprotective Dihydroagarofuran Sesquiterpene Derivatives from the Leaves of Tripterygium wilfordii” (2018)
